Where “and” joins values, the source holds several entries; their conditions need not be identical. Equal values may be shown once.
Legend:
[1] = tested on: human ovarian adenocarcinoma SKOV-3 cells; assay: Cytotoxicity assay (CellTiter-Glo, 72 h), SKOV-3; type: cell-based; conditions: raw replicate data
How it was run: (§1)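 Incubate 4 h at 37 °C, 5% CO2. Add 2-fold compound dilutions, 0.5% DMSO. After 72 h, read CellTiter-Glo luminescence.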

[2] = Cytotoxicity assay (CellTiter-Glo, 72 h), SKOV-3; type: cell-based, human; conditions: human, raw replicate data, read-out: SKOV3 viability (%)
How it was run: as §1

[3] = tested on: malignant pleural mesothelioma MESO-1 cells; assay: Cytotoxicity assay (CellTiter-Glo, 72 h), MESO-1; type: cell-based; conditions: raw replicate data
How it was run: as §1

[4] = Cytotoxicity assay (CellTiter-Glo, 72 h), MESO-1; type: cell-based; conditions: human, MESO-1 malignant pleural mesothelioma cells, raw replicate data, read-out: MESO1 viability (%)
How it was run: as §1

[5] = tested on: Jurkat, SKOV-3 and MESO-1 cells; assay: Cytotoxicity assay, statements for all tested cell lines together; type: cell-based; conditions: Jurkat, SKOV-3 and MESO-1 cells, 72 h
How it was run: as §1

T lymphoma Jurkat cells = assay: Cytotoxicity assay (CellTiter-Glo, 72 h), Jurkat; type: cell-based; conditions: raw data (replicates)
How it was run: as §1

[6] = Cytotoxicity assay (CellTiter-Glo, 72 h), Jurkat; type: cell-based; conditions: human, Jurkat cells (T lymphoma), raw data (replicates)
How it was run: as §1

COC1CC2CCC(C)C(O)(O2)C(=O)C(=O)N2CCCCC2C(=O)OC(C(C)CC2CCC(O)C(OC)C2)CC(=O)C(C)C=C(C)C(O)CC(=O)C(C)C=C(C)C=CC=CC=C1C (stereo not shown) [Compound 14]
SKOV3 viability (%) ([1]; conc 9.53674e-5 uM): 98.4% and 95.5%
SKOV3 viability (%) ([1]; conc 0.000190735 uM): 101.1% and 93.2%
SKOV3 viability (%) ([1]; conc 0.00038147 uM): 101.8% and 98.2%
SKOV3 viability (%) ([1]; conc 0.000762939 uM): 98.4% and 94.2%
SKOV3 viability (%) ([1]; conc 0.00152588 uM): 99.8% and 104.2%
SKOV3 viability (%) ([1]; conc 0.00305176 uM): 98.8% and 92.1%
SKOV3 viability (%) ([1]; conc 0.00610352 uM): 101.4% and 103.8%
SKOV3 viability (%) ([1]; conc 0.012207 uM): 94.0% and 97.4%
SKOV3 viability (%) ([1]; conc 0.0244141 uM): 103.2% and 105.4%
SKOV3 viability (%) ([1]; conc 0.0488281 uM): 98.2% and 100.0%
SKOV3 viability (%) ([1]; conc 0.0976562 uM): 101.8% and 110.3%
SKOV3 viability (%) ([1]; conc 0.195312 uM): 98.6% and 95.1%
SKOV3 viability (%) ([1]; conc 0.390625 uM): 104.4%
SKOV3 viability (%) ([1]; conc 0.78125 uM): 86.0% and 88.0%
SKOV3 viability (%) ([1]; conc 1.5625 uM): 92.8% and 89.9%
SKOV3 viability (%) ([1]; conc 3.125 uM): 80.6% and 76.1%
SKOV3 viability (%) ([1]; conc 6.25 uM): 79.5%
SKOV3 viability (%) ([1]; conc 12.5 uM): 67.2% and 69.9%
SKOV3 viability (%) ([1]; conc 25 uM): 77.7% and 72.7%
SKOV3 viability (%) ([1]; conc 50 uM): 51.8% and 56.0%
viability at 72 h, 9.53674e-05 uM ([2]; SKOV-3 cells (ovarian adenocarcinoma), conc 9.53674e-5 uM): 105%
viability at 72 h, 0.000190735 uM ([2]; SKOV-3 cells (ovarian adenocarcinoma), conc 0.000190735 uM): 103%
viability at 72 h, 0.00038147 uM ([2]; SKOV-3 cells (ovarian adenocarcinoma), conc 0.00038147 uM): 104%
viability at 72 h, 0.000762939 uM ([2]; SKOV-3 cells (ovarian adenocarcinoma), conc 0.000762939 uM): 102%
viability at 72 h, 0.00152588 uM ([2]; SKOV-3 cells (ovarian adenocarcinoma), conc 0.00152588 uM): 97.9%
viability at 72 h, 0.00305176 uM ([2]; SKOV-3 cells (ovarian adenocarcinoma), conc 0.00305176 uM): 98%
viability at 72 h, 0.00610352 uM ([2]; SKOV-3 cells (ovarian adenocarcinoma), conc 0.00610352 uM): 103%
viability at 72 h, 0.012207 uM ([2]; SKOV-3 cells (ovarian adenocarcinoma), conc 0.012207 uM): 97.1%
viability at 72 h, 0.0244141 uM ([2]; SKOV-3 cells (ovarian adenocarcinoma), conc 0.0244141 uM): 106%
viability at 72 h, 0.0488281 uM ([2]; SKOV-3 cells (ovarian adenocarcinoma), conc 0.0488281 uM): 100%
viability at 72 h, 0.0976562 uM ([2]; SKOV-3 cells (ovarian adenocarcinoma), conc 0.0976562 uM): 100%
viability at 72 h, 0.195312 uM ([2]; SKOV-3 cells (ovarian adenocarcinoma), conc 0.195312 uM): 97.3%
viability at 72 h, 0.390625 uM ([2]; SKOV-3 cells (ovarian adenocarcinoma), conc 0.390625 uM): 99.4%
viability at 72 h, 12.5 uM ([2]; SKOV-3 cells (ovarian adenocarcinoma), conc 12.5 uM): 81.9%
viability at 72 h, 25 uM ([2]; SKOV-3 cells (ovarian adenocarcinoma), conc 25 uM): 73.7%
viability at 72 h, 50 uM ([2]; SKOV-3 cells (ovarian adenocarcinoma), conc 50 uM): 60.7%
viability at 72 h, 0.78125 uM ([2]; SKOV-3 ovarian adenocarcinoma cells, conc 0.78125 uM): 93.1%
viability at 72 h, 1.5625 uM ([2]; SKOV-3 ovarian adenocarcinoma cells, conc 1.5625 uM): 91.2%
viability at 72 h, 3.125 uM ([2]; SKOV-3 ovarian adenocarcinoma cells, conc 3.125 uM): 84.5%
viability at 72 h, 6.25 uM ([2]; SKOV-3 ovarian adenocarcinoma cells, conc 6.25 uM): 78.2%
MESO1 viability (%) ([3]; conc 9.53674e-5 uM): 99.4% and 103.8%
MESO1 viability (%) ([3]; conc 0.000190735 uM): 95.6% and 99.1%
MESO1 viability (%) ([3]; conc 0.00038147 uM): 104.7% and 94.5%
MESO1 viability (%) ([3]; conc 0.000762939 uM): 96.5%
MESO1 viability (%) ([3]; conc 0.00152588 uM): 101.1% and 98.7%
MESO1 viability (%) ([3]; conc 0.00305176 uM): 99.6% and 99.1%
MESO1 viability (%) ([3]; conc 0.00610352 uM): 100.1%
MESO1 viability (%) ([3]; conc 0.012207 uM): 95.8% and 96.3%
MESO1 viability (%) ([3]; conc 0.0244141 uM): 100.3% and 106.1%
MESO1 viability (%) ([3]; conc 0.0488281 uM): 100.9% and 99.1%
MESO1 viability (%) ([3]; conc 0.0976562 uM): 96.4% and 97.3%
MESO1 viability (%) ([3]; conc 0.195312 uM): 87.1% and 89.8%
MESO1 viability (%) ([3]; conc 0.390625 uM): 94.1% and 98.7%
MESO1 viability (%) ([3]; conc 0.78125 uM): 79.4% and 79.1%
MESO1 viability (%) ([3]; conc 1.5625 uM): 71.5% and 77.1%
MESO1 viability (%) ([3]; conc 3.125 uM): 73.4% and 72.1%
MESO1 viability (%) ([3]; conc 6.25 uM): 74.3% and 73.5%
MESO1 viability (%) ([3]; conc 12.5 uM): 68.9% and 72.8%
MESO1 viability (%) ([3]; conc 25 uM): 69.4% and 68.8%
MESO1 viability (%) ([3]; conc 50 uM): 60.5% and 62.4%
viability at 72 h, 9.53674e-05 uM ([4]; conc 9.53674e-5 uM): 96.6%
viability at 72 h, 0.000190735 uM ([4]; conc 0.000190735 uM): 97.8%
viability at 72 h, 0.00038147 uM ([4]; conc 0.00038147 uM): 94.8%
viability at 72 h, 0.000762939 uM ([4]; conc 0.000762939 uM): 104%
viability at 72 h, 0.00152588 uM ([4]; conc 0.00152588 uM): 102%
viability at 72 h, 0.00305176 uM ([4]; conc 0.00305176 uM): 94.6%
viability at 72 h, 0.00610352 uM ([4]; conc 0.00610352 uM): 95.7%
viability at 72 h, 0.012207 uM ([4]; conc 0.012207 uM): 94.6%
viability at 72 h, 0.0244141 uM ([4]; conc 0.0244141 uM): 94.7%
viability at 72 h, 0.0488281 uM ([4]; conc 0.0488281 uM): 96.1%
viability at 72 h, 0.0976562 uM ([4]; conc 0.0976562 uM): 102%
viability at 72 h, 0.195312 uM ([4]; conc 0.195312 uM): 90.3%
viability at 72 h, 0.390625 uM ([4]; conc 0.390625 uM): 93.7%
viability at 72 h, 0.78125 uM ([4]; conc 0.78125 uM): 79%
viability at 72 h, 1.5625 uM ([4]; conc 1.5625 uM): 79.3%
viability at 72 h, 3.125 uM ([4]; conc 3.125 uM): 75%
viability at 72 h, 6.25 uM ([4]; conc 6.25 uM): 77.6%
viability at 72 h, 12.5 uM ([4]; conc 12.5 uM): 72.5%
viability at 72 h, 25 uM ([4]; conc 25 uM): 74.6%
viability at 72 h, 50 uM ([4]; conc 50 uM): 59.3%
Effect on cell viability, in words [5]: slightly suppressed the cell viabilities
Jurkat viability (%) (T lymphoma Jurkat cells; conc 9.53674e-5 uM): 99.0% and 99.6%
Jurkat viability (%) (T lymphoma Jurkat cells; conc 0.000190735 uM): 96.4% and 106.9%
Jurkat viability (%) (T lymphoma Jurkat cells; conc 0.00038147 uM): 106.3% and 110.1%
Jurkat viability (%) (T lymphoma Jurkat cells; conc 0.000762939 uM): 94.3% and 106.0%
Jurkat viability (%) (T lymphoma Jurkat cells; conc 0.00152588 uM): 101.0% and 106.0%
Jurkat viability (%) (T lymphoma Jurkat cells; conc 0.00305176 uM): 97.8%
Jurkat viability (%) (T lymphoma Jurkat cells; conc 0.00610352 uM): 106.2% and 106.5%
Jurkat viability (%) (T lymphoma Jurkat cells; conc 0.012207 uM): 99.3%
Jurkat viability (%) (T lymphoma Jurkat cells; conc 0.0244141 uM): 108.2% and 105.8%
Jurkat viability (%) (T lymphoma Jurkat cells; conc 0.0488281 uM): 103.9% and 107.5%
Jurkat viability (%) (T lymphoma Jurkat cells; conc 0.0976562 uM): 96.8%
Jurkat viability (%) (T lymphoma Jurkat cells; conc 0.195312 uM): 93.3% and 90.8%
Jurkat viability (%) (T lymphoma Jurkat cells; conc 0.390625 uM): 89.0% and 89.4%
Jurkat viability (%) (T lymphoma Jurkat cells; conc 0.78125 uM): 77.6% and 70.2%
Jurkat viability (%) (T lymphoma Jurkat cells; conc 1.5625 uM): 62.3% and 57.2%
Jurkat viability (%) (T lymphoma Jurkat cells; conc 3.125 uM): 49.0% and 51.4%
Jurkat viability (%) (T lymphoma Jurkat cells; conc 6.25 uM): 45.2% and 40.6%
Jurkat viability (%) (T lymphoma Jurkat cells; conc 12.5 uM): 39.4% and 37.1%
Jurkat viability (%) (T lymphoma Jurkat cells; conc 25 uM): 31.9% and 26.3%
Jurkat viability (%) (T lymphoma Jurkat cells; conc 50 uM): 1.0% and 0.558%
viability at 72 h, 9.53674e-05 uM ([6]; conc 9.53674e-5 uM): 100%
viability at 72 h, 0.000190735 uM ([6]; conc 0.000190735 uM): 99.4%
viability at 72 h, 0.00038147 uM ([6]; conc 0.00038147 uM): 100%
viability at 72 h, 0.000762939 uM ([6]; conc 0.000762939 uM): 99.9%
viability at 72 h, 0.00152588 uM ([6]; conc 0.00152588 uM): 101%
viability at 72 h, 0.00305176 uM ([6]; conc 0.00305176 uM): 103%
viability at 72 h, 0.00610352 uM ([6]; conc 0.00610352 uM): 98.3%
viability at 72 h, 0.012207 uM ([6]; conc 0.012207 uM): 100%
viability at 72 h, 0.0244141 uM ([6]; conc 0.0244141 uM): 102%
viability at 72 h, 0.0488281 uM ([6]; conc 0.0488281 uM): 101%
viability at 72 h, 0.0976562 uM ([6]; conc 0.0976562 uM): 97.1%
viability at 72 h, 0.195312 uM ([6]; conc 0.195312 uM): 95.7%
viability at 72 h, 0.390625 uM ([6]; conc 0.390625 uM): 94%
viability at 72 h, 0.78125 uM ([6]; conc 0.78125 uM): 78.6%
viability at 72 h, 1.5625 uM ([6]; conc 1.5625 uM): 66.2%
viability at 72 h, 3.125 uM ([6]; conc 3.125 uM): 45.1%
viability at 72 h, 6.25 uM ([6]; conc 6.25 uM): 45.6%
viability at 72 h, 12.5 uM ([6]; conc 12.5 uM): 38.2%
viability at 72 h, 25 uM ([6]; conc 25 uM): 31.3%
viability at 72 h, 50 uM ([6]; conc 50 uM): 0.9%
